Measurements taken from patent US20150086643A1, “TRADITIONAL CHINESE MEDICINE COMPOUND ANTITUMOR NANO PREPARATION AND USE THEREOF” (priority 2013, published 2015).

System: H22 hepatoma carcinoma cells
Assay: In-vivo tumor inhibitory effect in H22 tumor-bearing Kunming mice
Method: The tumor-bearing Kunming mice are used to evaluate the in-vivo tumor inhibitory effect of the compound multiple-unit capsule of the present invention. Inoculating H22 hepatoma carcinoma cells (provided by Shanghai Institute of Materia Medica of Chinese Academy of Sciences) to enterocoelia of mice, taking out the H22 cells cultivated in the enterocoelia of mice after 6-8 days and preparing into homogeneous suspension with PBS; subcutaneously inoculating 0.2 mL of H22 cells (2×10^6/mL) to right axilla of each mouse. After inoculation, the mice are divided into 5 groups, 10 mice for each group: (1) Normal saline group (blank control), (2) 5-FU group (positive control), (3) 0.5% CMC-Na group, (4) Niu Huang Xing Xiao pill group and (5) Compound multiple-unit capsule group. The 5-FU group is subjected to administration through intraperitoneal injection, once every two days, with the dosage being 25 mg/kg. And the other four groups are subjected to intragastric administration. Preparation method of the Niu Huang Xing Xiao pill group and the compound multiple-unit capsule group is as follows: taking prescription amount of each component, adding the components into 0.5% CMC-Na water solution to prepare suspension. The concentration of drug for administration according to the original prescription for the groups (4) and (5) is 450 mg/kg (with the concentration of realgar being about 75 mg/kg). The tumor inhibiting rate is calculated with the following formula:
Tumor inhibiting rate=(C−T)/C×100%; C and T being average weight of the tumors on mice of the blank control and the treatment group.

In the case of `O=c1[nH]cc(F)c(=O)[nH]1` [Example 5-FU, 5-FU], the “Weight of mice (g) After” value (after treatment, n=10) was 24.20 ± 1.75 g, the “Weight of mice (g) Before” value (before treatment, n=10) was 20.20 ± 0.92 g and the “Weight of tumor” value (n=10, 5-FU 25 mg/kg i.p. once every two days, pill and capsule 450 mg/kg intragastric) was 0.50 ± 0.13 g. The “Tumor inhibiting rate (%)” value (n=10, (C−T)/C×100% vs blank control, 5-FU 25 mg/kg i.p., pill and capsule 450 mg/kg intragastric) was 67.95%.
